Reference: patent US4499083A, “3-O-Demethyl derivatives of the istamycin B series of compounds” (Zaidan Hojin Biseibutsu Kagaku Kenkyu Kai, priority 1980, dated 1985)
≈ marks a conversion by molar mass, not a printed value. Where two headings read alike, the source gives them in different places.

Legend:
Type in all cases: cell-based
[1] = test system: Escherichia coli K-12 ML1410; assay: Antibacterial spectrum, MIC by serial dilution on nutrient agar; conditions: read-out: Minimum inhibitory concentration
[2] = test system: Escherichia coli K-12; assay: as above; conditions: K12, 37° C., 17 hours, read-out: Minimum inhibitory concentration
[3] = test system: Staphylococcus aureus Smith; assay: as above; conditions: read-out: Minimum inhibitory concentration
[4] = test system: Escherichia coli K-12 R5; assay: as above; conditions: K12R5, 17 h, read-out: Minimum inhibitory concentration
[5] = test system: Klebsiella pneumoniae PCI602; assay: as above; conditions: 37° C., 17 hours, read-out: Minimum inhibitory concentration
[6] = test system: Pseudomonas maltophilia GN 907; assay: as above; conditions: Stenotrophomonas maltophilia, GN907, 37° C., 17 hours, read-out: Minimum inhibitory concentration
[7] = test system: Pseudomonas aeruginosa H9; assay: as above; conditions: 37° C., 17 hours, read-out: Minimum inhibitory concentration
[8] = test system: Escherichia coli JR66/W677; assay: as above; conditions: JR66/W677, 17 h, read-out: Minimum inhibitory concentration
[9] = test system: Salmonella enteritidis 1891; assay: as above; conditions: Salmonella enterica, 37° C., 17 hours, read-out: Minimum inhibitory concentration
[10] = test system: Bacillus anthracis; assay: microbe, parasite or virus in culture; conditions: 17 h, read-out: Minimum inhibitory concentration
[11] = test system: Serratia marcescens; assay: Antibacterial spectrum, MIC by serial dilution on nutrient agar; conditions: read-out: Minimum inhibitory concentration
[12] = test system: Pseudomonas aeruginosa B-13; assay: as above; conditions: B13, 37° C., 17 hours, read-out: Minimum inhibitory concentration
[13] = test system: Proteus rettgeri GN311; assay: as above; conditions: Providencia rettgeri, 37° C., 17 hours, read-out: Minimum inhibitory concentration
[14] = test system: Pseudomonas aeruginosa No. 12; assay: as above; conditions: 37° C., 17 hours, read-out: Minimum inhibitory concentration
[15] = test system: Pseudomonas aeruginosa ROS 134/PU21; assay: as above; conditions: ROS134/PU21, 17 h, read-out: Minimum inhibitory concentration
[16] = test system: Bacillus subtilis PCI 219; assay: as above; conditions: read-out: Minimum inhibitory concentration
[17] = test system: Escherichia coli K-12 R388; assay: as above; conditions: K12R388, 17 h, read-out: Minimum inhibitory concentration
[18] = test system: Escherichia coli K-12 LA290 R55; assay: as above; conditions: K12LA290R55, 17 h, read-out: Minimum inhibitory concentration
[19] = test system: Shigella dysenteriae JS11910; assay: as above; conditions: JS11910, 17 h, read-out: Minimum inhibitory concentration
[20] = test system: Providencia sp. Pv16; assay: as above; conditions: 37° C., 17 hours, read-out: Minimum inhibitory concentration
[21] = test system: Serratia sp. SOU; assay: as above; conditions: 37° C., 17 hours, read-out: Minimum inhibitory concentration
[22] = test system: Mycobacterium smegmatis ATCC 607; assay: as above; conditions: Mycolicibacterium smegmatis, read-out: Minimum inhibitory concentration
[23] = test system: Serratia sp. 4; assay: as above; conditions: 37° C., 17 hours, read-out: Minimum inhibitory concentration
[24] = test system: Corynebacterium bovis 1810; assay: as above; conditions: read-out: Minimum inhibitory concentration
[25] = test system: Pseudomonas aeruginosa GN315; assay: as above; conditions: 37° C., 17 hours, read-out: Minimum inhibitory concentration
[26] = test system: Providencia sp. 2991; assay: as above; conditions: 37° C., 17 hours, read-out: Minimum inhibitory concentration
[27] = test system: Staphylococcus aureus FDA 209P; assay: as above; conditions: FDA209P, 37° C., 17 hours, read-out: Minimum inhibitory concentration
[28] = test system: Escherichia coli K-12 ML1410 R81; assay: as above; conditions: K12ML1410R81, 17 h, read-out: Minimum inhibitory concentration
[29] = test system: Staphylococcus aureus Ap01; assay: as above; conditions: 37° C., 17 hours, read-out: Minimum inhibitory concentration
[30] = test system: Sarcina lutea PCI 1001; assay: as above; conditions: Micrococcus luteus, PCI1001, 37° C., 17 hours, read-out: Minimum inhibitory concentration
[31] = test system: Proteus rettgeri GN466; assay: as above; conditions: Providencia rettgeri, read-out: Minimum inhibitory concentration
[32] = test system: Pseudomonas aeruginosa 99; assay: as above; conditions: 37° C., 17 hours, read-out: Minimum inhibitory concentration
[33] = test system: Bacillus subtilis NRRL B-558; assay: as above; conditions: read-out: Minimum inhibitory concentration
[34] = test system: Micrococcus flavus FDA 16; assay: as above; conditions: FDA16, 37° C., 17 hours, read-out: Minimum inhibitory concentration
[35] = test system: Pseudomonas aeruginosa 21-75; assay: as above; conditions: 2175, 37° C., 17 hours, read-out: Minimum inhibitory concentration
[36] = test system: Escherichia coli K-12 J5R11-2; assay: as above; conditions: read-out: Minimum inhibitory concentration
[37] = test system: Escherichia coli K-12 LA290 R64; assay: as above; conditions: K12LA290R64, 17 h, read-out: Minimum inhibitory concentration
[38] = test system: Staphylococcus epidermidis 109; assay: as above; conditions: 37° C., 17 hours, read-out: Minimum inhibitory concentration
[39] = Escherichia coli, K12ML1410, 17 h
[40] = Staphylococcus aureus Smith, nutrient agar, 37° C., 17 hours
[41] = PCI219, Bacillus subtilis PCI 219, nutrient agar, 37° C., 17 hours
[42] = ATCC607, Mycobacterium smegmatis ATCC 607, nutrient agar, 37° C., 17 hours
[43] = Corynebacterium bovis 1810, nutrient agar, 37° C., 17 hours
[44] = NRRLB558, Bacillus subtilis NRRL B-558, nutrient agar, 37° C., 17 hours
[45] = K12J5R112, Escherichia coli K-12 J5R11-2, nutrient agar, 37° C., 17 hours
[46] = nutrient agar, 37° C., 17 hours

| SMILES | MIC [2] [µg/mL] | MIC [4] [µg/mL] | MIC [5] [µg/mL] | MIC [6] [µg/mL] | MIC [7] [µg/mL] | MIC [8] [µg/mL] | MIC [9] [µg/mL] | MIC [10] [µg/mL] | MIC [12] [µg/mL] | MIC [13] [µg/mL] | MIC [14] [µg/mL] | MIC [15] [µg/mL] | MIC [17] [µg/mL] | MIC [18] [µg/mL] | MIC [19] [µg/mL] | MIC [20] [µg/mL] | MIC [21] [µg/mL] | MIC [23] [µg/mL] | MIC [25] [µg/mL] | MIC [26] [µg/mL] | further results |
| --- | --- | --- | --- | --- | --- | --- | --- | --- | --- | --- | --- | --- | --- | --- | --- | --- | --- | --- | --- | --- | --- |
| CNCC1CCC(N)C(OC2C(N)CC(O)C(N(C)C(=O)CNC=N)C2O)O1 (stereo not drawn) [3-O-Demethyl-2"-N-formimidoylistamycin B] | 1.56 (≈ 3.88 µM) | 3.13 (≈ 7.78 µM) | 1.56 (≈ 3.88 µM) | > 100 | 12.5 (≈ 31.1 µM) | 3.13 (≈ 7.78 µM) | 1.56 (≈ 3.88 µM) | < 0.2 | > 100 | 12.5 (≈ 31.1 µM) | 12.5 (≈ 31.1 µM) | 50 (≈ 124 µM) | 1.56 (≈ 3.88 µM) | 1.56 (≈ 3.88 µM) | 3.13 (≈ 7.78 µM) | 25 (≈ 62.1 µM) | > 100 | 6.25 (≈ 15.5 µM) | 6.25 (≈ 15.5 µM) | 12.5 (≈ 31.1 µM) | MIC [1, 39]: 3.13 µg/mL (≈ 7.78 µM); MIC [3, 40]: < 0.2 µg/mL; MIC ([11]; 17 h): 3.13 µg/mL (≈ 7.78 µM); MIC [16, 41]: < 0.2 µg/mL; MIC [22, 42]: < 0.2 µg/mL; MIC [24, 43]: 0.78 µg/mL (≈ 1.94 µM); MIC [27]: 0.2 µg/mL (≈ 0.497 µM); MIC [28]: 1.56 µg/mL (≈ 3.88 µM); MIC [29]: 0.78 µg/mL (≈ 1.94 µM); MIC [30]: < 0.2 µg/mL; MIC ([31]; GN466, 17 h): 3.13 µg/mL (≈ 7.78 µM); MIC [32]: 100 µg/mL (≈ 248 µM); MIC [33, 44]: < 0.2 µg/mL; MIC [34]: < 0.2 µg/mL; MIC [35]: 25 µg/mL (≈ 62.1 µM); MIC [36, 45]: 1.56 µg/mL (≈ 3.88 µM); MIC [37]: 1.56 µg/mL (≈ 3.88 µM); MIC [38]: 0.78 µg/mL (≈ 1.94 µM) |
| CNCC1CCC(N)C(OC2C(N)CC(OC)C(N(C)C(=O)CN)C2O)O1 (stereo not drawn) [Istamycin B, istamycin B] | 1.56 (≈ 4.01 µM) | 3.13 (≈ 8.04 µM) | 1.56 (≈ 4.01 µM) | > 100 | 50 (≈ 128 µM) | 3.13 (≈ 8.04 µM) | 1.56 (≈ 4.01 µM) | < 0.2 | > 100 | 12.5 (≈ 32.1 µM) | 100 (≈ 257 µM) | > 100 | 1.56 (≈ 4.01 µM) | 3.13 (≈ 8.04 µM) | 3.13 (≈ 8.04 µM) | 6.25 (≈ 16 µM) | 100 (≈ 257 µM) | 50 (≈ 128 µM) | 50 (≈ 128 µM) | 6.25 (≈ 16 µM) | MIC [1, 39]: 3.13 µg/mL (≈ 8.04 µM); MIC [3, 40]: < 0.2 µg/mL; MIC [11, 46]: 6.25 µg/mL (≈ 16 µM); MIC [16, 41]: < 0.2 µg/mL; MIC [22, 42]: 0.78 µg/mL (≈ 2 µM); MIC [24, 43]: 0.78 µg/mL (≈ 2 µM); MIC [27]: 0.39 µg/mL (≈ 1 µM); MIC [28]: 1.56 µg/mL (≈ 4.01 µM); MIC [29]: 0.78 µg/mL (≈ 2 µM); MIC [30]: 0.2 µg/mL (≈ 0.513 µM); MIC ([31]; Proteus rettgeri GN466, nutrient agar, 37° C., 17 hours): 6.25 µg/mL (≈ 16 µM); MIC [32]: > 100 µg/mL; MIC [33, 44]: < 0.2 µg/mL; MIC [34]: 6.25 µg/mL (≈ 16 µM); MIC [35]: 100 µg/mL (≈ 257 µM); MIC [36, 45]: 1.56 µg/mL (≈ 4.01 µM); MIC [37]: 1.56 µg/mL (≈ 4.01 µM); MIC [38]: 0.78 µg/mL (≈ 2 µM) |
| CNCC1CCC(N)C(OC2C(N)CC(O)C(N(C)C(=O)CN)C2O)O1 (stereo not drawn) [3-O-Demethylistamycin B] | 3.13 (≈ 8.34 µM) | 6.25 (≈ 16.6 µM) | 3.13 (≈ 8.34 µM) | > 100 | 25 (≈ 66.6 µM) | 6.25 (≈ 16.6 µM) | 3.13 (≈ 8.34 µM) | < 0.2 | 50 (≈ 133 µM) | 12.5 (≈ 33.3 µM) | 12.5 (≈ 33.3 µM) | 50 (≈ 133 µM) | 1.56 (≈ 4.15 µM) | 6.25 (≈ 16.6 µM) | 6.25 (≈ 16.6 µM) | 25 (≈ 66.6 µM) | 25 (≈ 66.6 µM) | 12.5 (≈ 33.3 µM) | 12.5 (≈ 33.3 µM) | 12.5 (≈ 33.3 µM) | MIC ([1]; K12ML1410, Escherichia coli K-12 ML1410, nutrient agar, 37° C., 17 hours): 3.13 µg/mL (≈ 8.34 µM); MIC ([3]; Staphylococcus aureus, 17 h): < 0.2 µg/mL; MIC [11, 46]: 12.5 µg/mL (≈ 33.3 µM); MIC ([16]; Bacillus subtilis, PCI219, 17 h): < 0.2 µg/mL; MIC ([22]; ATCC607, 17 h): < 0.2 µg/mL; MIC ([24]; Corynebacterium bovis, 1810, 17 h): 1.56 µg/mL (≈ 4.15 µM); MIC [27]: 0.39 µg/mL (≈ 1.04 µM); MIC [28]: 3.13 µg/mL (≈ 8.34 µM); MIC [29]: 0.78 µg/mL (≈ 2.08 µM); MIC [30]: 0.39 µg/mL (≈ 1.04 µM); MIC ([31]; GN466, 17 h): 6.25 µg/mL (≈ 16.6 µM); MIC [32]: 25 µg/mL (≈ 66.6 µM); MIC ([33]; Bacillus subtilis, NRRLB558, 17 h): < 0.2 µg/mL; MIC [34]: 3.13 µg/mL (≈ 8.34 µM); MIC [35]: 50 µg/mL (≈ 133 µM); MIC ([36]; Escherichia coli, K12J5R112, 17 h): 1.56 µg/mL (≈ 4.15 µM); MIC [37]: 3.13 µg/mL (≈ 8.34 µM); MIC [38]: 0.78 µg/mL (≈ 2.08 µM) |
